# Laboratory results as given in patent US20240423977A1, “FIVE-MEMBERED RING-FUSED SIX-MEMBERED RING COMPOUND, PREPARATION METHOD THEREFOR, AND PHARMACEUTICAL COMPOSITION AND USE THEREOF” (HANGZHOU POLYMED BIOPHARMACEUTICALS, INC., priority 2022, published 2024).
# Columns and labels:
# kinase IRAK4 = kinase IRAK4 (Homo sapiens (Human), UniProt Q9NWZ3); assay: Inhibitory effects of compounds on kinase activity (fluorescence microfluidic mobility detection, competitive with ATP); assay type: biochemical; conditions: IRAK4 6 nM, ATP 10 μM
# Chain of kinase IRAK4 (Q9NWZ3 whole entry): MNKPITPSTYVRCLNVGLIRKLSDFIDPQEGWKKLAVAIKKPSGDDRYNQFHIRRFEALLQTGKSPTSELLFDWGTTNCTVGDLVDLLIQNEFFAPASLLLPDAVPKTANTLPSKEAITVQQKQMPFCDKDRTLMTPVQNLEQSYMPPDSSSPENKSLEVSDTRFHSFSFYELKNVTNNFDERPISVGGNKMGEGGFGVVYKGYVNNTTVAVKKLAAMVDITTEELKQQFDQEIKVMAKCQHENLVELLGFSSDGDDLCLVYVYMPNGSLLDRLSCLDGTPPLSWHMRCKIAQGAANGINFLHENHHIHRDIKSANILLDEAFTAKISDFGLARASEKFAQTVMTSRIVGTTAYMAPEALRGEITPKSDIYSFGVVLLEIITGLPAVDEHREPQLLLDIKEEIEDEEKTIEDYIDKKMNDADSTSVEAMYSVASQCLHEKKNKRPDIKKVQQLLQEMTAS
# Method: Based on an experimental method of fluorescence microfluidic mobility detection, an IC50 value of competitive binding of kinase IRAK4 to ATP by the compounds was determined. The initial detection concentration of the compounds was 10 μM, diluted 4-fold gradient down to […], and tested in duplicate. Among them, commercial staurosporine was the standard control substance in this experiment.
# 1) IRAK4 kinase was dissolved in kinase buffer (50 mM HEPES pH 7.5, 10 mM MgCl2, 2 mM DTT and 0.01% Brij-35) to a final concentration of 6 nM.
# 2) The substrate peptide FAM-P8 and ATP were dissolved in the above kinase buffer. The final concentrations of the IRAK4 substrate peptide FAM-P8 and ATP were 3 μM and 10 μM respectively.
# 3) Dilution of the compounds: the compound was first diluted to 50 μM, and then diluted down with a 4-fold gradient of DMSO. The solution without the compound and kinase is used as a blank control, corresponding to the “minimum value” shown below; and the solution without the compound but with kinase, adenosine 5′-triphosphate disodium salt hydrate, DMSO and buffer is used as a positive control, corresponding to the “maximum value” shown below. 4) Kinase reaction and termination: 10 μL of kinase buffer was added to a 384-well plate containing 5 μL of the compound to be tested, and incubated at room temperature for 10 minutes. Another 10 μL of buffer containing the substrate peptide and adenosine 5′-triphosphate disodium salt hydrate was added to the 384-well plate. After incubation at 28° C. for one hour, 25 μL stop solution (100 mM HEPES pH 7.5, 50 mM EDTA, 0.2% Coating Reagent #3 and 0.015% Brij-35) was added to each well to terminate the reaction.
# 5) Data reading: the CaliperEZ Reader II instrument was used to read the conversion rate data. Conditions: downstream voltage −500V, upstream voltage −2250V, base pressure −0.5 PSI, and screening pressure −1.2 PSI.
# 6) Data calculation: the conversion rate data was copied from CaliperEZ Reader II and converted into inhibition rate data. The calculation formula is as follows:
# [formula] • IC50 values were fitted using XLFit excel add-in version 5.4.0.8,
# Y=Bottom+(Top−Bottom)/(1+(IC50/X)^HillSlope) Fitting formula: […]
# [1] = biological target: IRAK4 protein in THP-1 cells (Homo sapiens (Human), UniProt Q9NWZ3); assay: PROTAC-induced IRAK4 protein degradation in THP-1 cells (Western Blot); assay type: cell-based; conditions: for DC50: concentration that degraded 50% of IRAK4, Western blotting, 24 hours after administration; for IRAK4 degradation rate 24 hours after administration of the compounds with a concentration of 1 μM: Western blotting
# Chain of IRAK4 protein in THP-1 cells (Q9NWZ3 whole entry): as above
# Method: 2.1 Based on the experimental method of Western Blot, specific antibodies were used to stain the THP-1 cell samples treated by gel electrophoresis, and the degrading activity of the compounds on the IRAK4 protein in THP-1 cells was determined by analyzing the position and depth of staining. The concentrations of compound for the detection included 0 μM, 0.3 μM, 1 μM and 3 μM, and the cells were treated by the compound for 8 hours, 16 hours, 24 hours, and 48 hours. Glyceraldehyde-3-phosphate dehydrogenase (GAPDH) is an internal reference protein in this experiment.
# Electrophoresis buffer: 50 mL MOPS SDS Running Buffer (20×) and 50 mL 20×TBS Tween-20 buffer were diluted with deionized water to 1 L as the electrophoresis buffer;
# 5% skim milk (w/v): 2.5 g skim milk was diluted with 50 mL 1×TBS Tween-20 buffer to prepare 5% skim milk;
# 5% BSA (w/v): 2.5 g BSA was diluted with 50 mL 1×TBS Tween-20 buffer to prepare 5% BSA;
# Anti-IRAK4 antibody was diluted with 5% BSA at 1:1000 into a primary antibody working solution;
# Goat Anti-Rabbit IgG H&L (HRP) was diluted with 5% BSA at 1:2000 into a second antibody working solution; and
# Goat Anti-Mouse IgG H&L (HRP) was diluted with 5% BSA at 1:2000 into a second antibody working solution.
# THP-1 cells were plated in a 6-well plate at a density of 1.5×10^6 cells per ml and incubated for 2 hours in a cell culture incubator under 37° C. and 5% CO2. The compound was diluted with DMSO to 0.6 mM, 0.2 mM and 0.06 mM respectively. 10 μL of compound solution was added to the corresponding wells, and continued to incubate in the incubator for 16 hours, 24 hours and 48 hours respectively. The compound-treated THP-1 cells in the well were collected, added with 120 μL of RIPA lysate containing protease inhibitor, Phosphatase Inhibitor Cocktail 2 and Phosphatase Inhibitor Cocktail 3, lysed on wet ice for 30 minutes, and then the cells lysate was centrifuged at a high speed and a low temperature for 5 minutes to collect the supernatant. The protein concentration of the cell sample was determined according to the instructions in the Pierce™ BCA Protein Assay Kit.
# The concentration of the sample was adjusted to be consistent using lysis buffer and NuPAGE® LDS sample buffer containing 1M DTT. The samples were heated at 95° C. for 5 minutes and centrifuged at a low temperature and at a high speed. 20 μL of the prepared protein sample and 4 μL of PageRuler Prestained Protein Ladder were added into the gel well for running at 80V voltage for 0.5 hours, then the voltage was adjusted to 120V for further running for 1.5 hours. The gel was removed and the proteins in the gel were transferred to the IBlotTM 2 transfer membrane set at 20V. After successful transfer, bands at 65 kDa-40 kDa and 40 kDa-30 kDa were cut respectively. The membranes were blocked with 5% skim milk for 1 hour at room temperature. The membranes were washed three times with 1× concentration of TBST, then incubated with IRAK4 antibody working solution overnight at 4° C. The IRAK4 antibody working solution was discarded, and the membranes were washed three times with 1×concentration of TBST, and incubated with Goat Anti-Rabbit IgG H&L (HRP) working solution and Goat Anti-Mouse IgG H&L (HRP) working solution at room temperature. After 1 hour of incubation, the antibody working solution was discarded and the membranes were washed three times with 1× concentration of TBST. According to the instructions of the kit SuperSignal™ West Femto Maximum Sensitivity Substrate, the reagents in the kit were mixed in equal volume proportions to prepare a luminescent liquid mixture. The membranes were incubated for 1 minute, then removed for exposure.
# The results of Western blotting 24 hours after administration of the compounds with a concentration of 1 μM were shown in Table 3: […]
SMILES,"IC50 (kinase IRAK4; Table 2, substrate FAM-P8 3 μM) [nM]",DC50 [1] [nM],"IC50 (kinase IRAK4; Table 1, class symbols) [nM]",IRAK4 degradation rate 24 hours after administration of the compounds with a concentration of 1 μM [1]
Cc1cccc(C(=O)Nc2cc3cn(C4CC5(CCN(C(=O)C6CCN(c7ccc8c(c7)C(=O)N([C@@H]7CCC(=O)NC7=O)C8=O)CC6)CC5)C4)nc3cc2C(C)(C)O)n1 [Compound I-64],22.7,2.32,–,–
COc1cc2nn(C3CC4(CCN(C(=O)C5(F)CCN(c6ccc7c(c6)C(=O)N(C6CCC(=O)NC6=O)C7=O)CC5)CC4)C3)cc2cc1NC(=O)c1cccc(N2CCOCC2)n1 (centres unmarked) [Compound I-50],70.7,21.6,–,–
COc1cc2nn(C3CC4(CCN(C(=O)C5CCN(c6ccc7c(c6)C(=O)N(C6CCC(=O)NC6=O)C7=O)CC5)CC4)C3)cc2cc1NC(=O)c1coc(-c2ccnc(C)c2)n1 (centres unmarked) [Compound I-36],12.4,1.16,–,–
COc1cc2nn(C3CC4(CCN(C(=O)C5CCN(c6ccc7c(c6)C(=O)N(C6CCC(=O)NC6=O)C7=O)CC5)CC4)C3)cc2cc1NC(=O)c1cccc(N2CC3CC2CO3)n1 (centres unmarked) [Compound I-52],13.3,3.9,–,–
COc1cc2nn(C3CC4(CCN(C(=O)C5CCN(c6ccc7c(c6)C(=O)N(C6CCC(=O)NC6=O)C7=O)CC5)CC4)C3)cc2cc1NC(=O)c1cccc(N2CCOCC2)n1 (centres unmarked) [Compound I-41],49.8,4.42,–,–
O=C1CCC(N2C(=O)c3ccc(N4CCC(C(=O)N5CCC6(CC5)CC(n5cc7cc(NC(=O)c8cccc(C(F)(F)F)n8)c(C(=O)O)cc7n5)C6)CC4)cc3C2=O)C(=O)N1 (centres unmarked) [Compound I-48],19.2,> 1000,–,–
COc1cc2nn(C3CC4(CCN(C(=O)C5CCN(c6cc7c(cc6F)C(=O)N(C6CCC(=O)NC6=O)C7=O)CC5)CC4)C3)cc2cc1NC(=O)c1cccc(N2CCOCC2)n1 (centres unmarked) [Compound I-46],17.7,9.15,–,–
COc1cc2nn(C3CCN(C4CCN(C(=O)c5ccc6c(c5)C(=O)N(C5CCC(=O)NC5=O)C6=O)CC4)CC3)cc2cc1NC(=O)c1cccc(C(F)(F)F)n1 (centres unmarked) [II-17],11,> 1000,< 100,<25%
COc1cc2nn(C3CC4(CCN(C(=O)C5CCN(c6cc7c(cc6F)C(=O)N(C6CCC(=O)NC6=O)C7=O)CC5)CC4)C3)cc2cc1NC(=O)c1cccc(C(F)(F)F)n1 (centres unmarked) [Compound I-8],25.9,8.2,< 100,–
COc1cc2nn(C3CC4(CCN(C(=O)C5CCN(c6ccc7c(c6)C(=O)N(C6CCC(=O)NC6=O)C7=O)CC5)CC4)C3)cc2cc1NC(=O)c1cccc(C(F)F)n1 (centres unmarked) [Compound I-42],10.2,1.2,–,–
COc1cc2nn(C3CC4(CCN(C(=O)C5CCN(c6ccc7c(c6)C(=O)N(C6CCC(=O)NC6=O)C7=O)CC5)CC4)C3)cc2cc1NC(=O)c1ccn(C(F)F)n1 (centres unmarked) [Compound I-47],9.17,5.53,–,–
O=C1CCC(N2C(=O)c3ccc(N4CCC(C(=O)N5CCC6(CC5)CC(n5cc7cc(NC(=O)c8cccc(C(F)(F)F)n8)c(N8CC[C@@H](O)C8)cc7n5)C6)CC4)cc3C2=O)C(=O)N1 (some centres unmarked) [Compound I-10],24,5.07,–,–
COc1cc2nn(C3CC4(CCN(C(=O)C5CCN(c6cc7c(cc6F)C(=O)N([C@H]6CCC(=O)NC6=O)C7=O)CC5)CC4)C3)cc2cc1NC(=O)c1cccc(C(F)(F)F)n1 [Compound I-61],31.4,7.62,–,–
COc1cc2nn(C3CC4(CCC(NC5CCN(c6ccc7c(c6)C(=O)N(C6CCC(=O)NC6=O)C7=O)CC5)CC4)C3)cc2cc1NC(=O)c1cccc(C(F)(F)F)n1 (centres unmarked) [Compound I-16],11.6,9.9,–,–
CC(O)(c1cc2nn(C3CC4(CCN(C(=O)C5CCN(c6ccc7c(c6)C(=O)N(C6CCC(=O)NC6=O)C7=O)CC5)CC4)C3)cc2cc1NC(=O)c1cccc(C(F)(F)F)n1)C(F)(F)F (centres unmarked) [Compound I-12F],57.6,1.08,–,–
COc1cc2nn(C3CC4(CCN(C(=O)C5CCC6(CC5)CN(c5ccc7c(c5)C(=O)N(C5CCC(=O)NC5=O)C7=O)C6)CC4)C3)cc2cc1NC(=O)c1cccc(C(F)(F)F)n1 (centres unmarked) [Compound I-26],30,44.6,–,–
CC(C)(O)c1cc2nn(C3CC4(CCN(C(=O)C5CCN(c6ccc7c(c6)C(=O)N([C@H]6CCC(=O)NC6=O)C7=O)CC5)CC4)C3)cc2cc1NC(=O)c1cccc(C(F)(F)F)n1 [Compound I-63],32.1,2.41,–,–
COc1cc2nn(C3CC4(C3)CN(C(=O)C3CCN(c5ccc6c(c5)C(=O)N(C5CCC(=O)NC5=O)C6=O)CC3)C4)cc2cc1NC(=O)c1cccc(C(F)(F)F)n1 (centres unmarked) [Compound I-14],16.6,12.6,–,–
COc1cc2nn(C3CC4(CCN(C(=O)C5CCN(c6ccc7c(c6)C(=O)N(c6ccc(=O)[nH]n6)C7=O)CC5)CC4)C3)cc2cc1NC(=O)c1cccc(C(F)(F)F)n1 [Compound I-43],20.7,> 1000,–,–
COc1cc2nn(C3CC4(CCN(C(=O)[C@H]5CC[C@H](Nc6ccc7c(c6)C(=O)N([C@@H]6CCC(=O)NC6=O)C7=O)CC5)CC4)C3)cc2cc1NC(=O)c1cccc(C(F)(F)F)n1 [Compound I-60],40.5,2.75,–,–
COc1cc2nn(C3CC4(CCN(C(=O)C5CCN(c6ccc7c(c6)C(=O)N(C6CCC(=O)NC6=O)C7=O)CC5)CC4)C3)cc2cc1NC(=O)c1cccc(C)n1 (centres unmarked) [Compound I-38],14.1,2.61,–,–
COc1cc2nn(C3CC4(CCN(C(=O)C5CCN(c6ccc7c(c6)C(=O)N(C6CCC(=O)NC6=O)C7=O)CC5)CC4)C3)cc2cc1NC(=O)c1coc(N2CCOCC2)n1 (centres unmarked) [Compound I-54],11.6,6.2,–,–
COc1cc2nn([C@H]3C[C@@H]4CN(C(=O)C5CCN(c6ccc7c(c6)C(=O)N(C6CCC(=O)NC6=O)C7=O)CC5)C[C@@H]4C3)cc2cc1NC(=O)c1cccc(C(F)(F)F)n1 (some centres unmarked) [Compound I-28],12.5,8.3,–,–
CC(C)(O)c1cc2nn(C3CCN(CC(=O)N4CCN(c5ccc6c(c5)C(=O)N(C5CCC(=O)NC5=O)C6=O)CC4)CC3)cc2cc1NC(=O)c1cccc(C(F)(F)F)n1 (centres unmarked) [II-6],8.2,9.99,< 100,75~100%
